Laboratory results as given in the supplement of paper PMC11061612.

Tests used:
[1] = system: HCC-44 (Lung Adenocarcinoma); test: combination Emax (second highest fraction inhibited in the dose matrix, 72 h); higher = more inhibition; extreme values may be limits of the assay
In short: (§1)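 Cell lines in DMEM/F12 or RPMI with 10% FBS were plated in 1536-well plates, held 24 hours at 37°C, 5% CO2, then given two-drug dose matrices for 72 hours (DMSO typically 0.2%). Viability was read by CellTiter-Glo 2.0 luminescence and scaled as inhibition from 0 (vehicle wells) to 1 (blank wells). Combination Emax is the second-highest inhibition in the matrix; Bliss excess is observed combination effect minus expected EA + EB − EA·EB, EA and EB being single-agent effects.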

[2] = system: KYM-1 (Rhabdomyosarcoma); test: Bliss excess, mean over the matrix (fraction); higher = more synergy
In short: as §1

[3] = system: RL95-2 (Endometrial Carcinoma); test: as above
In short: as §1

[4] = system: HCC-44 (Lung Adenocarcinoma); test: as above
In short: as §1

[5] = system: NCI-H196 (Small Cell Lung Carcinoma); test: as above
In short: as §1

[6] = system: Calu-6 (Non-Small Cell Lung Carcinoma); test: as above
In short: as §1
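Wherever Bliss excess, mean over the matrix is given: after 72 h of two-drug dosing.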

| SMILES | combination Emax [1] | Bliss excess [2] | Bliss excess [3] | Bliss excess [4] | Bliss excess [5] | Bliss excess [6] |
| --- | --- | --- | --- | --- | --- | --- |
| COc1nnc2ccc(N3CCC(c4ccc(OCCN5CCN(C)C(=O)[C@H]5C)cc4)CC3)nn12 [AZD5153] + Cc1c2c(nn1C)CSCc1cc(n(C)n1)CSc1cc(c3ccccc3c1)OCCCc1c(C(=O)O)n(C)c3c-2c(Cl)ccc13 [AZD5991] (first compound max 1 µM, 7x7, partner max 1 µM) | 0.756 | 0.0335 | -0.0414 | -0.0332 | 0.0074 | -0.131 |
| COc1nnc2ccc(N3CCC(c4ccc(OCCN5CCN(C)C(=O)[C@H]5C)cc4)CC3)nn12 [AZD5153] + Cn1cnc2c(F)c(Nc3ccc(Br)cc3Cl)c(C(=O)NOCCO)cc21 [Selumetinib] (first compound max 1 µM, 7x7, partner max 10 µM) | 0.728 | 0.0086 | -0.0221 | 0.0636 | -0.0296 | 0.0533 |
| NC1(C(=O)N[C@@H](CCO)c2ccc(Cl)cc2)CCN(c2ncnc3[nH]ccc23)CC1 [Capivasertib] + CC(=O)c1c(C)c2cnc(Nc3ccc(N4CCNCC4)cn3)nc2n(C2CCCC2)c1=O [Palbociclib] (first compound max 10 µM, 7x7, partner max 10 µM) | 0.641 | -0.0312 | 0.0215 | -0.0161 | -0.0706 | 0.0488 |
| NC1(C(=O)N[C@@H](CCO)c2ccc(Cl)cc2)CCN(c2ncnc3[nH]ccc23)CC1 [Capivasertib] + CC(C)n1c(=O)n(C)c2cnc3cc(F)c(-c4ccc(OCCCN5CCCCC5)nc4)cc3c21 [AZD1390] (first compound max 10 µM, 7x7, partner max 0.3 µM) | 0.602 | -0.0278 | -0.0709 | -0.0359 | -0.0439 | -0.0391 |
| NC1(C(=O)N[C@@H](CCO)c2ccc(Cl)cc2)CCN(c2ncnc3[nH]ccc23)CC1 [Capivasertib] + CCN(CCO)CCCOc1ccc2c(Nc3cc(CC(=O)Nc4cccc(F)c4)[nH]n3)ncnc2c1 [AZD2811] (first compound max 10 µM, 7x7, partner max 1 µM) | 0.663 | -0.0457 | -0.0051 | -0.0388 | -0.0276 | -0.0009 |
| NC1(C(=O)N[C@@H](CCO)c2ccc(Cl)cc2)CCN(c2ncnc3[nH]ccc23)CC1 [Capivasertib] + COc1nnc2ccc(N3CCC(c4ccc(OCCN5CCN(C)C(=O)[C@H]5C)cc4)CC3)nn12 [AZD5153] (first compound max 10 µM, 7x7, partner max 1 µM) | 0.704 | -0.0306 | -0.002 | -0.0278 | 0.0227 | -0.0081 |
| NC1(C(=O)N[C@@H](CCO)c2ccc(Cl)cc2)CCN(c2ncnc3[nH]ccc23)CC1 [Capivasertib] + C[C@@H]1COCCN1C2=NC(=NC(=C2)C3(CC3)[S@](=N)(=O)C)C4=C5C=CNC5=NC=C4 [AZD6738] (first compound max 10 µM, 7x7, partner max 10 µM) | 0.661 | -0.0693 | -0.0803 | -0.0298 | -0.0265 | -0.0777 |
| NC1(C(=O)N[C@@H](CCO)c2ccc(Cl)cc2)CCN(c2ncnc3[nH]ccc23)CC1 [Capivasertib] + Cn1cnc2c(F)c(Nc3ccc(Br)cc3Cl)c(C(=O)NOCCO)cc21 [Selumetinib] (first compound max 10 µM, 7x7, partner max 10 µM) | 0.824 | -0.0072 | 0.0367 | 0.106 | -0.0436 | 0.0038 |
| Cc1nc(Nc2ncc(C(=O)Nc3c(C)cccc3Cl)s2)cc(N2CCN(CCO)CC2)n1 [Dasatinib] + CC(=O)Nc1cccc(-n2c(=O)n(C3CC3)c(=O)c3c(Nc4ccc(I)cc4F)n(C)c(=O)c(C)c32)c1 [Trametinib] (first compound max 2 µM, 7x7, partner max 1 µM) | 0.955 | -0.0178 | -0.186 | 0.0359 | -0.0634 | 0.179 |
| COc1cc2ncnc(Nc3ccc(F)c(Cl)c3)c2cc1OCCCN1CCOCC1 [Gefitinib] + CC(C)n1c(=O)n(C)c2cnc3cc(F)c(-c4ccc(OCCCN5CCCCC5)nc4)cc3c21 [AZD1390] (first compound max 10 µM, 7x7, partner max 0.3 µM) | 0.121 | -0.0515 | -0.0454 | -0.0387 | -0.0685 | -0.0556 |
| CS(=O)(=O)CCNCc1ccc(-c2ccc3ncnc(Nc4ccc(OCc5cccc(F)c5)c(Cl)c4)c3c2)o1 [Lapatinib] + C[C@@H](Oc1cc(-c2cnn(C3CCNCC3)c2)cnc1N)c1c(Cl)ccc(F)c1Cl [Crizotinib] (first compound max 10 µM, 7x7, partner max 10 µM) | 0.939 | -0.0515 | -0.0535 | -0.0384 | -0.0564 | 0.0122 |
| CC(=O)c1c(C)c2cnc(Nc3ccc(N4CCNCC4)cn3)nc2n(C2CCCC2)c1=O [Palbociclib] + CC1(C)CCC(CN2CCN(c3ccc(C(=O)NS(=O)(=O)c4ccc(NCC5CCOCC5)c([N+](=O)[O-])c4)c(Oc4cnc5[nH]ccc5c4)c3)CC2)=C(c2ccc(Cl)cc2)C1 [Venetoclax] (first compound max 10 µM, 7x7, partner max 1 µM) | 0.0628 | -0.0392 | 0.0133 | -0.0374 | -0.0608 | 0.0322 |
| CC(=O)c1c(C)c2cnc(Nc3ccc(N4CCNCC4)cn3)nc2n(C2CCCC2)c1=O [Palbociclib] + Cc1c2c(nn1C)CSCc1cc(n(C)n1)CSc1cc(c3ccccc3c1)OCCCc1c(C(=O)O)n(C)c3c-2c(Cl)ccc13 [AZD5991] (first compound max 10 µM, 7x7, partner max 1 µM) | 0.169 | 0.0337 | -0.0841 | -0.0224 | -0.0784 | -0.0227 |
| CC(=O)c1c(C)c2cnc(Nc3ccc(N4CCNCC4)cn3)nc2n(C2CCCC2)c1=O [Palbociclib] + Cn1cnc2c(F)c(Nc3ccc(Br)cc3Cl)c(C(=O)NOCCO)cc21 [Selumetinib] (first compound max 10 µM, 7x7, partner max 10 µM) | 0.426 | -0.0022 | -0.0144 | 0.0332 | -0.0617 | -0.102 |
| C[C@@H](c1ccc2nccn2c1)n1nnc2ncc(-c3cnn(C)c3)nc21 [Savolitinib] + CC1(C)CCC(CN2CCN(c3ccc(C(=O)NS(=O)(=O)c4ccc(NCC5CCOCC5)c([N+](=O)[O-])c4)c(Oc4cnc5[nH]ccc5c4)c3)CC2)=C(c2ccc(Cl)cc2)C1 [Venetoclax] (first compound max 1 µM, 7x7, partner max 1 µM) | 0.148 | -0.0133 | -0.0481 | -0.02 | -0.067 | -0.0539 |
| C[C@@H](c1ccc2nccn2c1)n1nnc2ncc(-c3cnn(C)c3)nc21 [Savolitinib] + Cc1c2c(nn1C)CSCc1cc(n(C)n1)CSc1cc(c3ccccc3c1)OCCCc1c(C(=O)O)n(C)c3c-2c(Cl)ccc13 [AZD5991] (first compound max 1 µM, 7x7, partner max 1 µM) | 0.0929 | -0.0309 | -0.0676 | -0.0335 | -0.0675 | -0.0124 |
| Cn1cnc2c(F)c(Nc3ccc(Br)cc3Cl)c(C(=O)NOCCO)cc21 [Selumetinib] + C=CCn1c(=O)c2cnc(Nc3ccc(N4CCN(C)CC4)cc3)nc2n1-c1cccc(C(C)(C)O)n1 [AZD1775] (first compound max 10 µM, partner max 1 µM) | 0.64 | -0.0696 | 0.0148 | -0.0088 | -0.0704 | -0.0133 |
| Cn1cnc2c(F)c(Nc3ccc(Br)cc3Cl)c(C(=O)NOCCO)cc21 [Selumetinib] + CC(C)n1c(=O)n(C)c2cnc3cc(F)c(-c4ccc(OCCCN5CCCCC5)nc4)cc3c21 [AZD1390] (first compound max 10 µM, 7x7, partner max 0.3 µM) | 0.396 | -0.0207 | -0.0663 | -0.0225 | -0.0561 | -0.0588 |
| Cn1cnc2c(F)c(Nc3ccc(Br)cc3Cl)c(C(=O)NOCCO)cc21 [Selumetinib] + CCN(CCO)CCCOc1ccc2c(Nc3cc(CC(=O)Nc4cccc(F)c4)[nH]n3)ncnc2c1 [AZD2811] (first compound max 10 µM, 7x7, partner max 1 µM) | 0.528 | -0.0102 | 0.045 | 0.0067 | -0.057 | -0.0026 |
| Cn1cnc2c(F)c(Nc3ccc(Br)cc3Cl)c(C(=O)NOCCO)cc21 [Selumetinib] + C[C@@H]1COCCN1C2=NC(=NC(=C2)C3(CC3)[S@](=N)(=O)C)C4=C5C=CNC5=NC=C4 [AZD6738] (first compound max 10 µM, 7x7, partner max 10 µM) | 0.503 | -0.033 | 0.0152 | -0.034 | -0.0607 | -0.032 |
